Assays:
[1] = biological target: T1, UndA (Pseudomonas putida, UniProt A5W7G6); assay: 1-undecene production, total turnover; format: biochemical; settings: optimal conditions of UndA; details in supplement
T1 sequence (A5W7G6 1-271): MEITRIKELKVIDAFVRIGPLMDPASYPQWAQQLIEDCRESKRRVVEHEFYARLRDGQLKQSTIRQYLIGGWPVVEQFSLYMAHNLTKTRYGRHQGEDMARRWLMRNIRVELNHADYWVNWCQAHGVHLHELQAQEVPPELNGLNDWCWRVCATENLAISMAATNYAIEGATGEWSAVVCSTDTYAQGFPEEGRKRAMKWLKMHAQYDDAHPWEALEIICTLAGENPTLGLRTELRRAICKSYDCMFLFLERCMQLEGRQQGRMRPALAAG

[2] = biological target: T2, OleT (Jeotgalicoccus sp. ATCC 8456, UniProt E9NSU2); assay: 1-undecene production, total turnover; format: biochemical; settings: CamAB redox partner system
T2 sequence (E9NSU2 1-422): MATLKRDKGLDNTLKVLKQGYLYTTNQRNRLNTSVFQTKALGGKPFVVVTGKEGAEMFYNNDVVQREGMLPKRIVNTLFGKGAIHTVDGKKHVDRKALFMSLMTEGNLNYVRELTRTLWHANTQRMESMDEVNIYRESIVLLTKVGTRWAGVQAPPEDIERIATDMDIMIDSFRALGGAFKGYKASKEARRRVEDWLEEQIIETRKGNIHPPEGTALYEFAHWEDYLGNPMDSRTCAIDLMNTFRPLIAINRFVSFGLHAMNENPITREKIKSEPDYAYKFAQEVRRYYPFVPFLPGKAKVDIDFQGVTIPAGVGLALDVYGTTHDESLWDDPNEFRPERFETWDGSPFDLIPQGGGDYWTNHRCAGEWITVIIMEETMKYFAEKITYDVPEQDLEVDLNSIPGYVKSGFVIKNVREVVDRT

SMILES: CCCCCCCCCCCC(=O)O [compound 5, lauric acid]
- 1-undecene production, total turnover [1]: While UndA exhibited poor activity
- 1-undecene production, total turnover [2]: UndB, OleT, and OleT-AldO showed substantial 1-undecene production (fig. S6)

Reference: PMC11204201 (Science Advances, 2024)
